Measurements from patent US20250092030A1, “ENHANCERS OF PARTICULATE GUANYLYL CYCLASE RECEPTOR A” (Mayo Foundation for Medical Education and Research, priority 2023, published 2025).
Several values for one entry are separate records, joined by “and”; a condition that tells them apart may be missing. Equal entries are not always repeated. Where two headings read alike, the source gives them in different places.

Molecular target: T1, particulate guanylyl cyclase receptor A (pGC-A) (Homo sapiens, UniProt P16066)
T1 construct: expressed in transfected cells; host or cells: HEK293
T1 sequence (P16066 33-1061): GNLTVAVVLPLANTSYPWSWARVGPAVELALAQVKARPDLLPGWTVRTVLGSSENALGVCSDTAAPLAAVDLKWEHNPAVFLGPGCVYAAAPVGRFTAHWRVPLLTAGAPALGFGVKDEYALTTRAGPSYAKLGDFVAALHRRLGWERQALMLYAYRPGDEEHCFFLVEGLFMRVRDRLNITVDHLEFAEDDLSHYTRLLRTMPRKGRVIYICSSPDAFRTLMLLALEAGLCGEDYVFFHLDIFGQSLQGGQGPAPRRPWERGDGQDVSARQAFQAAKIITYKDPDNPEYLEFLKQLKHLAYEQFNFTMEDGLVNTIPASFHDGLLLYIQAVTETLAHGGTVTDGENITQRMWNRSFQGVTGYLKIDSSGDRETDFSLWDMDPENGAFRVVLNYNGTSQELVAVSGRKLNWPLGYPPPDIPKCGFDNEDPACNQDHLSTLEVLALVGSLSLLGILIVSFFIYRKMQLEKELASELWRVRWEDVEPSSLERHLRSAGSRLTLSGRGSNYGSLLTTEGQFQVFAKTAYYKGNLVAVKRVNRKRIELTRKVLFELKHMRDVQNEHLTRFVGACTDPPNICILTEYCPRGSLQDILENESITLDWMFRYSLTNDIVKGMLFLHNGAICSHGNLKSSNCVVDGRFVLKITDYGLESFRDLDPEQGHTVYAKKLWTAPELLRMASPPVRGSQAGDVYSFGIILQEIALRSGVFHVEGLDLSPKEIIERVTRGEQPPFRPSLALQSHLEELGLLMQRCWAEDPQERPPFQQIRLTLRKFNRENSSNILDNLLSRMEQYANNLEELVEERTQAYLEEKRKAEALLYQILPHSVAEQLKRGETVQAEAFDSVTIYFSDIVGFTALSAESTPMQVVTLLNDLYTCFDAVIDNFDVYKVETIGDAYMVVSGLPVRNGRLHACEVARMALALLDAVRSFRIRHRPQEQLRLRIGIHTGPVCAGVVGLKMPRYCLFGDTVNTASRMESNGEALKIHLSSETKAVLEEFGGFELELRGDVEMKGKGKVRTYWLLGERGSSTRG
T1 sequence (P01160 124-151 partner limits assumed): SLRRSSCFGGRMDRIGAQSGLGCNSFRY
Experiment: cGMP production by HTRF in HEK293 cells overexpressing pGC-A, with ANP
Assay type: cell-based
Conditions: for Emax / Max efficacy: cGMP normalized to maximal amount produced by an EC80 concentration of ANP; for Emax: read-out: Max efficacy; for EC50: test compound plus EC20 concentration of ANP, cGMP by HTRF
In short: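 Suspension cells stimulated 30 min at room temperature with test compound (10 μM stock in DMSO) plus ANP near EC20 in HBSS/5 mM HEPES/0.05% BSA. cGMP quantified by competitive HTRF immunoassay (Eu3+ cryptate anti-cGMP, d2-cGMP), normalized to cGMP from EC80 ANP; EC50 derived with or without ANP.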

[1] = HEK293, HEK293 cells overexpressing pGC-A
[2] = HEK293 cells overexpressing pGC-A

| Structure (SMILES) | Emax [1] [%] | Max efficacy [2] | EC50 [2] | Emax [2] [%] |
| --- | --- | --- | --- | --- |
| O=C(Nc1nc2c(F)cc(F)cc2s1)C1CNCc2ccccc21 (stereo not drawn) [compound 060] | – | – | > 5000 nM | – |
| C=CCN1CCC(N2CCCC(C(=O)Nc3nc4c(F)cc(F)cc4s3)C2)C1 (stereo not drawn) [compound 092] | 89 | – | 50 nM | – |
| CN(C)CCN1CCCC(C(=O)Nc2nc3cc(F)ccc3s2)C1 (stereo not drawn) [compound 010] | – | – | > 10000 nM | – |
| Cc1cccc2nc(NC(=O)C3CCCN(CCN(C)C)C3)sc12 (stereo not drawn) [compound 034] | 99 | – | 5900 nM | – |
| O=C(O)CN1CCC(N2CCCC(C(=O)Nc3nc4c(F)cc(F)cc4s3)C2)C1 (stereo not drawn) [compound 095] | – | – | > 5000 nM | – |
| O=C(Nc1nc2c(F)cc(F)cc2s1)C12CCC(CC1)NC2 [compound 062] | 92 | – | 3400 nM | – |
| O=C(Nc1nc2c(Cl)cc(F)cc2s1)C1CCCN(c2ccnc3ccccc23)C1 (stereo not drawn) [compound 114] | – | – | > 5000 nM | – |
| CN1CCC(N2CCCC(C(=O)Nc3nc4c(F)cc(F)cc4s3)C2)C1 (stereo not drawn) [compound 090] | 85 | 69% | 160 nM and 70 nM | – |
| N[C@H]1CCCC(C(=O)Nc2nc3c(F)cc(F)cc3s2)C1 (stereo partly drawn) [210C] | 92 | – | – | – |
| O=C(Nc1nc2c(F)cc(F)cc2s1)C1CNCCN1C(=O)OCc1ccccc1 (stereo not drawn) [compound 043] | – | – | > 5000 nM | – |
| CN(C)CCN1CCCC(C(=O)Nc2nc3cccc(Cl)c3s2)C1 (stereo not drawn) [compound 033] | 82 | 63% | 2200 nM and 1200 nM | – |
| CN1CC(N2CCCC(C(=O)Nc3nc4c(Cl)cc(F)cc4s3)C2)C1 (stereo not drawn) [compound 103] | 82 | – | 280 nM | – |
| CN(C)CCN1CCCC(C(=O)Nc2nc3cccc(F)c3s2)C1 (stereo not drawn) [compound 032] | 85 | – | 4300 nM | – |
| O=C(Nc1nc2c(F)cc(F)cc2s1)C1CCCN(C2CCNC2)C1 (stereo not drawn) [compound 091] | 72 | – | 1300 nM | – |
| CN1CCCCC1CN1CCCC(C(=O)Nc2nc3c(F)cc(F)cc3s2)C1 (stereo not drawn) [compound 073] | 94 | – | 400 nM | – |
| CC1NCC1N1CCCC(C(=O)Nc2nc3c(Cl)cc(F)cc3s2)C1 (stereo not drawn) [compound 131] | 81 | – | 130 nM | – |
| O=C(Nc1nc2c(F)cc(F)cc2s1)C1CCC2CCC1N2 (stereo not drawn) [compound 049] | – | – | 300 nM | 98 |

| Structure (SMILES) | Emax [1] [%] | Max efficacy [2] | EC50 [2] | Emax [2] [%] |
| --- | --- | --- | --- | --- |
| CN1CCCC(N2CCCC(C(=O)Nc3nc4c(F)cc(F)cc4s3)C2)C1 (stereo not drawn) [compound 070] | – | 71% and 85% | – | – |
| COC(=O)CN1CCC(N2CCCC(C(=O)Nc3nc4c(F)cc(F)cc4s3)C2)C1 (stereo not drawn) [compound 094] | 93 | – | 1000 nM | – |
| N[C@H]1CCC[C@H](C(=O)Nc2nc3c(F)cc(F)cc3s2)C1 [210C] | – | – | 1900 nM | – |
| Cc1cccc(-c2csc(NC(=O)C3CCCN(CCN(C)C)C3)n2)c1 (stereo not drawn) [compound 152] | – | – | > 5000 nM | – |
| CN1CCC(CN2CCCC(C(=O)Nc3nc4c(F)cc(F)cc4s3)C2)CC1 (stereo not drawn) [compound 075] | 92 | – | 1500 nM | – |
| CC(=O)N1CC(N2CCCC(C(=O)Nc3nc4c(Cl)cc(F)cc4s3)C2)C1 (stereo not drawn) [compound 138] | 46 | – | 1100 nM | – |
| COc1cc(N2CCCC(C(=O)Nc3nc4c(F)cc(F)cc4s3)C2)ccn1 (stereo not drawn) [compound 107] | 101 | – | 2100 nM | – |
| O=C(Nc1nc2c(F)cc(F)cc2s1)C1CCCN(C2CNC2)C1 (stereo not drawn) [compound 085] | 89 | 84% | 80 nM and 200 nM | – |
| CCOc1cc(F)c2nc(NC(=O)C3CCCN(CCN(C)C)C3)sc2c1 (stereo not drawn) [compound 026] | – | – | > 5000 nM | – |
| CN1CCC(N2CCCC(C(=O)Nc3nc4c(F)cc(F)cc4s3)C2)C1=O (stereo not drawn) [compound 097] | 89 | – | 700 nM | – |
| Nc1cc(N2CCCC(C(=O)Nc3nc4c(F)cc(F)cc4s3)C2)ccn1 (stereo not drawn) [compound 108] | 88 | – | 600 nM | – |
| COc1ccc2sc(NC(=O)C3CCCN(CCN(C)C)C3)nc2c1 (stereo not drawn) [compound 013] | – | – | > 10000 nM | – |
| CC1C(N2CCCC(C(=O)Nc3nc4c(Cl)cc(F)cc4s3)C2)CN1C (stereo not drawn) [compound 130] | 94 | – | 120 nM | – |
| CN(C)CCN1CCCC(C(=O)Nc2nc(-c3cccc(Cl)c3)cs2)C1 (stereo not drawn) [compound 149] | – | – | > 5000 nM | – |
| COCCN1CCC(N2CCCC(C(=O)Nc3nc4c(F)cc(F)cc4s3)C2)C1 (stereo not drawn) [compound 093] | 86 | – | 90 nM | – |
| CN(C)CCN1CCOC(C(=O)Nc2nc3c(F)cc(F)cc3s2)C1 (stereo not drawn) [compound 046] | – | – | > 5000 nM | – |
| CN(C)CCN1CCCC(C(=O)Nc2nc3cc(Cl)ccc3s2)C1 (stereo not drawn) [compound 011] | – | – | > 10000 nM | – |

The next lines start with results.

| Emax [1] [%] | Max efficacy [2] | EC50 [2] | Structure (SMILES) | Emax [2] [%] |
| --- | --- | --- | --- | --- |
| 62 | 72% | 3600 nM and 1200 nM | CCN(C)C(=O)N1CCCC(C(=O)Nc2nc3c(F)cc(F)cc3s2)C1 (stereo not drawn) [compound 274] | – |
| – | – | > 5000 nM | CN(C)CCN1CCCC(C(=O)Nc2nc3c(Cl)ccc(Cl)c3s2)C1 (stereo not drawn) [compound 252] | – |
| – | – | > 10000 nM | O=C(Nc1nc2c(F)cc(F)cc2s1)c1ccc(Cl)cc1 [compound 202] | – |
| 78 | – | 900 nM | CN(C)CCC1CCCC(C(=O)Nc2nc3c(Cl)cc(F)cc3s2)C1 (stereo not drawn) [compound 215] | – |
| 45 | – | 1300 nM | O=C(Nc1nc2c(F)cc(F)cc2s1)C1CNCC(O)C1 (stereo not drawn) [compound 263] | – |
| 98 | – | 900 nM | CN(C)CCCN1CCCC(C(=O)Nc2nc3c(F)cc(F)cc3s2)C1 (stereo not drawn) [compound 231] | – |
| – | – | > 10000 nM | O=C(Nc1nc2c(F)cc(F)cc2s1)c1ccc(-c2ccccc2)cc1 [compound 206] | – |
| – | – | > 5000 nM | CN(C)CCN1CCCC(C(=O)Nc2ncc(-c3ccccc3)s2)C1 (stereo not drawn) [compound 169] | – |
| – | – | > 5000 nM | CN(C)CCN1CCCC(C(=O)Nc2nc3c(F)ccc(F)c3s2)C1 (stereo not drawn) [compound 234] | – |
| 86 | 92% | 210 nM and 320 nM | CCN(CC)CCN1CCCC(C(=O)Nc2nc3c(F)cc(F)cc3s2)C1 (stereo not drawn) [compound 238] | – |
| – | – | > 5000 nM | COc1ccccc1-c1csc(NC(=O)C2CCCN(CCN(C)C)C2)n1 (stereo not drawn) [compound 154] | – |
| 91 | – | 1500 nM | CN(C)C1CCN(CC(=O)Nc2nc3c(F)cc(F)cc3s2)CC1 [compound 219] | – |
| 87 | 94% and 77% | 220 nM and 300 nM | O=C(Nc1nc2c(F)cc(F)cc2s1)C1CCCN(CCN2CCCC2)C1 (stereo not drawn) [compound 239] | – |
| – | 74% and 51% | – | CNCCN1CCCC(C(=O)Nc2nc3c(F)cc(F)cc3s2)C1 (stereo not drawn) [compound 237] | – |
| 86 | – | 600 nM | CN(C)C(=O)N1CCCC(C(=O)Nc2nc3c(F)cc(F)cc3s2)C1 (stereo not drawn) [compound 255] | – |
| 91 | 77% | 470 nM and 200 nM | O=C(Nc1nc2c(F)cc(F)cc2s1)C1CCCN(CCN2CCCCC2)C1 (stereo not drawn) [compound 243] | – |
| 113 | 113, 113% | 1400 nM and 2600 nM | CN(C)CCN1CCCC(C(=O)Nc2nc3c(F)cc(Cl)cc3s2)C1 (stereo not drawn) [compound 235] | – |
| – | – | > 5000 nM | Cc1ccc(-c2csc(NC(=O)C3CCCN(CCN(C)C)C3)n2)cc1 (stereo not drawn) [compound 153] | – |
